The source of these data is US20240228572A1 (i2o Therapeutics, Inc., priority 2020, published 2024).

*1 amine or outer side, *2 acyl side, *3 side chain or, on linkers, in order; H or OH if unused. Where a SMILES comes first, the peptide text is derived from it. Bridges are numbered along the chain shown (N, C = ends). Side-chain parts run from the residue outwards. The star is where a group is joined. C20 diacid = O=C(O)CCCCCCCCCCCCCCCCCCC(=O)*; γGlu = O=C(O)[C@H](CCC(=O)[*:2])N[*:1]; AEEA = NCCOCCOCC(=O)O

The target in assay [1] is T1, human Glucagon receptor (GCGR) (Homo sapiens, UniProt P47871).
T1 construct: A cDNA fragment encoding the full-length open reading frame of the human GCGR; expressed in transfected cells; host or cells: CHO-K1, pcDNA3.1+, Lipofectamine 2000
T1 sequence (P47871 26-477): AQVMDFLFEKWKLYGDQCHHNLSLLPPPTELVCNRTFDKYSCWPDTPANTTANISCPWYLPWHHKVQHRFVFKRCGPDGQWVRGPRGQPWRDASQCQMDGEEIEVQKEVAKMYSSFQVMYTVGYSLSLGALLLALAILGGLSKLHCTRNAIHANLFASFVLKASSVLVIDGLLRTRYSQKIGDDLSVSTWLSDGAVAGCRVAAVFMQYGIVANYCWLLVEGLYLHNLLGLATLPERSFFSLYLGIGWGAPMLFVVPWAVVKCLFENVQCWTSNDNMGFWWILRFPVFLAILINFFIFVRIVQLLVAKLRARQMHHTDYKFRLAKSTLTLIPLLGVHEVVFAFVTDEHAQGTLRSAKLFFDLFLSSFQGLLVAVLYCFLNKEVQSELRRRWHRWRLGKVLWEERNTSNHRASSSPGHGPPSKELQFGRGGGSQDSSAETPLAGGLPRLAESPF
Put plainly: cAMP accumulation assay, CHO-K1 cells expressing human GCGR. Type of assay: cell-based. Particulars: mean pEC50, Table 10. From the text: In the presence of the non-specific cAMP/cGMP phosphodiesterase inhibitor, 3-isobutyl-1-methylxanthine (IBMX), accumulating cAMP can be measured in vitro using common detection methods. Thus, it is possible to estimate an in vitro potency (pEC50) for peptides activating each of these receptors using fit dose-response curves for cAMP accumulation.
A cDNA fragment encoding the full-length open reading frame of the cynomolgus monkey GLP-1R (Genebank accession #XM_028847603 was cloned into pcDNA3.1+ for expression in CHO-K1 cells. A cDNA fragment encoding the full-length open reading frame of the human GCGR (Genebank accession #NM_000160 was cloned into pcDNA3.1+ for expression in CHO-K1 cells. A cDNA fragment encoding the full-length open reading frame of the rat GCGR (Genebank accession #NM_12091 was cloned into pcDNA3.1+ for expression in CHO-K1 cells. A cDNA fragment encoding the full-length open reading frame of the cynomolgus monkey GCGR (Genebank accession #XM_005585255 was cloned into pcDNA3.1+ for expression in CHO-K1 cells.
On day 1, CHO-K1 cells were plated at 1.5 million cells per T75 flask in 90% F12-K media supplemented with 10% FBS. On day 3 cells were transfected with 40 mcg of each expression plasmid using Lipofectamine 2000 transfection reagent. On day 5, cells were dispensed at 1000 cells per well in white 384-well OptiPlates in 5 mcL of assay buffer consisting of 1×HBSS, 5 mM HEPES, 0.5 mM IBMX, and 0.1% casein.
Peptides were serially diluted 4-fold in assay buffer to final concentrations ranging from 1×10^−9 M to 9.5×10^−16 M. Two assay controls consisting of 50 mcM forskolin (cAMP system maximum) or assay buffer only (cAMP system minimum) were also prepared. Five microliters of each peptide-concentration, or assay control, was added to triplicate wells and incubated for thirty minutes at room temperature. During this incubation step a 4× europium labelled cAMP tracer solution and a 4× Ulight®-anti-cAMP solution (consisting of an anti-cAMP monoclonal antibody labelled with Ulight™ dye) was prepared according to the manufacturer's protocol (PerkinElmer LANCE Ultra cAMP kit). Following this incubation, 5 mcL europium labelled cAMP and 5 mcL Ulight anti-cAMP antibody was added to each well. The plate was covered to prevent evaporation and incubated for 60 minutes at room temperature in the dark. Plates were read on an Envision fluorescent plate reader (PerkinElmer).
Test values were first normalized to the system maximum and system minimum averaged values in Excel using the formula: (test value−system min average)/(system max average -system min average)*100. Normalized test values represent a baseline corrected percentage of the system maximum cAMP response induced by forskolin. Data from up to 3 replicate tests were analyzed for each peptide. Potency values were estimated using GraphPad Prism software (v7.04) by fitting data to a 4-parameter logistic curve model: Y=Bottom+(Top−Bottom)/(1+10^((LogEC50−X))). The Hill slope was constrained to 1.0. EC50 values were converted to pEC50 values using the formula: pEC50=−Log (EC50).

For assay [2], the target named is T2, human GLP-1 receptor (GLP-1R) (Homo sapiens, UniProt P43220).
T2 construct: expressed in transfected cells
T2 sequence (P43220 24-463): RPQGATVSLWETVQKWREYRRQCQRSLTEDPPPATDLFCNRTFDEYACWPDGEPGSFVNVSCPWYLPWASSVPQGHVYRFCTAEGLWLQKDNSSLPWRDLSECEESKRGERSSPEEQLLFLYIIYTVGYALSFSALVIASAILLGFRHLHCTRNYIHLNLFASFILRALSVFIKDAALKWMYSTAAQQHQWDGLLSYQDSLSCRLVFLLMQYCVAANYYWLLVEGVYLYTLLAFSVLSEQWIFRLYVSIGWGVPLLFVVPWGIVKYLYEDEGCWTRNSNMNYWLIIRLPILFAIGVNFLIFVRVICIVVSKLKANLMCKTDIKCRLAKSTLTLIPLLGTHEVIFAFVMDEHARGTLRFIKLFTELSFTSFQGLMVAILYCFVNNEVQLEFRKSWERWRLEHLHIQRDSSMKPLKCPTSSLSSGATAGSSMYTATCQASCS
As to the kind of experiment: cAMP accumulation assay, CHO-K1 cells stably expressing human GLP-1R. Type of assay: cell-based. Particulars: cAMP accumulation, mean pEC50, Table 10.

With `CC(C)C[C@H](NC(=O)[C@H](Cc1ccc(O)cc1)NC(=O)[C@H](CCCCN)NC(=O)[C@H](CO)NC(=O)[C@H](Cc1ccc(O)cc1)NC(=O)[C@H](CC(=O)O)NC(=O)[C@H](CO)NC(=O)[C@@H](NC(=O)[C@H](Cc1ccccc1)NC(=O)[C@@H](NC(=O)CNC(=O)[C@H](Cc1c[nH]cn1)NC(=O)[C@H](CO)NC(=O)[C@@H](N)Cc1ccc(O)cc1)[C@@H](C)O)[C@@H](C)O)C(=O)N[C@@H](CC(=O)O)C(=O)N[C@@H](CCCCNC(=O)CC[C@H](NC(=O)CC[C@H](NC(=O)COCCOCCNC(=O)CCCCCCCCCCCCCCCCCCC(=O)O)C(=O)O)C(=O)O)C(=O)N[C@@H](CCCCN)C(=O)N[C@@H](Cc1ccc(O)cc1)C(=O)N[C@@H](C)C(=O)N[C@H]1CCC(=O)NCCCC[C@@H](C(=O)N[C@@H](Cc2c[nH]c3ccccc23)C(=O)N[C@@H](CC(C)C)C(=O)N[C@@H](CCC(=O)O)C(=O)N[C@@H](CC(=O)O)C(=O)N[C@@H](CCC(=O)O)C(=O)N2CCC[C@H]2C(=O)N[C@@H](CO)C(=O)N[C@@H](CO)C(=O)NCC(=O)N[C@@H](CO)C(=O)N2CCC[C@H]2C(=O)N2CCC[C@H]2C(=O)N2CCC[C@H]2C(=O)N[C@@H](CO)C(=O)O)NC(=O)[C@H](C(C)C)NC(=O)[C@H](Cc2ccccc2)NC(=O)[C@H](CCCCN)NC1=O` [Compound A33] (H-YSHGTFTSDYSKYLDK([γGlu-γGlu-AEEA-C20 diacid])KYAEKFVKWLEDEPSSGSPPPS-OH; lactam 20-24; N-terminus assumed), the EC50 in assay [1] is 1.26 pM; in assay [2], more than 1000 pM.
Take `CC(C)C[C@H](NC(=O)[C@H](Cc1ccc(O)cc1)NC(=O)[C@H](CCCCN)NC(=O)[C@H](CO)NC(=O)[C@H](Cc1ccc(O)cc1)NC(=O)[C@H](CC(=O)O)NC(=O)[C@H](CO)NC(=O)[C@@H](NC(=O)[C@H](Cc1ccccc1)NC(=O)[C@@H](NC(=O)CNC(=O)[C@H](Cc1c[nH]cn1)NC(=O)[C@H](CO)NC(=O)[C@@H](N)Cc1ccc(O)cc1)[C@@H](C)O)[C@@H](C)O)C(=O)N[C@@H](CC(=O)O)C(=O)N[C@@H](CCCCNC(=O)CC[C@H](NC(=O)CC[C@H](NC(=O)COCCOCCNC(=O)CCCCCCCCCCCCCCCCCCC(=O)O)C(=O)O)C(=O)O)C(=O)N[C@@H](CCCCN)C(=O)N[C@@H](Cc1ccc(O)cc1)C(=O)N[C@@H](C)C(=O)N[C@H]1CCCCNC(=O)CC[C@@H](C(=O)N[C@@H](Cc2c[nH]c3ccccc23)C(=O)N[C@@H](CC(C)C)C(=O)N[C@@H](CCC(=O)O)C(=O)N[C@@H](CC(=O)O)C(=O)N[C@@H](CCC(=O)O)C(=O)N2CCC[C@H]2C(=O)N[C@@H](CO)C(=O)N[C@@H](CO)C(=O)NCC(=O)N[C@@H](C)C(=O)N2CCC[C@H]2C(=O)N2CCC[C@H]2C(=O)N2CCC[C@H]2C(=O)N[C@@H](CO)C(=O)O)NC(=O)[C@H](C(C)C)NC(=O)[C@H](Cc2ccccc2)NC(=O)[C@H](CCC(=O)O)NC1=O` [Compound A11] (H-YSHGTFTSDYSKYLDK([γGlu-γGlu-AEEA-C20 diacid])KYAKEFVEWLEDEPSSGAPPPS-OH; lactam 20-24): the EC50 in assay [1] was 2 pM; in assay [2], more than 1000 pM.
